Test results published in ChEMBL document CHEMBL1129851, “Synthesis and structural optimization of 7-(3,3-disubstituted-1-pyrrolidinyl)-1-cyclopropyl-6-fluoro-1,4-dihydro-8-methoxy-4-oxo-3-quinolinecarboxylic acids as antibacterial agents” (1997).
In brackets after ≈: the same amount, converted by molar mass.

Assays:
Format in all cases: functional
Enterococcus faecalis = test: Minimum inhibitory concentration in vitro against Enterococcus faecalis LS-101
Staphylococcus aureus [1] = test: Minimum inhibitory concentration vitro against Staphylococcus aureus No.88
Staphylococcus aureus [2] = test: Minimum inhibitory concentration in vitro against Staphylococcus aureus FDA 209P
Streptococcus pneumoniae = test: Minimum inhibitory concentration in vitro against Streptococcus pneumoniae Type III
Escherichia coli = test: Minimum inhibitory concentration in vitro against Escherichia coli NIHJ JC-2

MIC (Enterococcus faecalis) | MIC (Staphylococcus aureus [1]) | MIC (Staphylococcus aureus [2]) | MIC (Streptococcus pneumoniae) | MIC (Escherichia coli) | Structure (SMILES)
0.2 µg/mL (≈ 0.493 µM) | 50 µg/mL (≈ 123 µM) | 0.1 µg/mL (≈ 0.247 µM) | 0.39 µg/mL (≈ 0.962 µM) | 0.78 µg/mL (≈ 1.92 µM) | COc1c(N2CCC(CN)(CO)C2)c(F)cc2c(=O)c(C(=O)O)cn(C3CC3)c12 (stereo not drawn)
0.05 µg/mL (≈ 0.123 µM) | 1.56 µg/mL (≈ 3.83 µM) | 0.012 µg/mL (≈ 0.0295 µM) | 0.05 µg/mL (≈ 0.123 µM) | 0.05 µg/mL (≈ 0.123 µM) | COc1c(N2CCC(CN)(CF)C2)c(F)cc2c(=O)c(C(=O)O)cn(C3CC3)c12 (stereo not drawn)
0.2 µg/mL (≈ 0.511 µM) | 50 µg/mL (≈ 128 µM) | 0.1 µg/mL (≈ 0.255 µM) | 0.2 µg/mL (≈ 0.511 µM) | 0.39 µg/mL (≈ 0.996 µM) | COc1c(N2CCC(O)(CN)C2)c(F)cc2c(=O)c(C(=O)O)cn(C3CC3)c12 (stereo not drawn)
0.05 µg/mL (≈ 0.123 µM) | 0.78 µg/mL (≈ 1.91 µM) | 0.012 µg/mL (≈ 0.0295 µM) | 0.05 µg/mL (≈ 0.123 µM) | 0.05 µg/mL (≈ 0.123 µM) | COc1c(N2CC[C@@](CN)(CF)C2)c(F)cc2c(=O)c(C(=O)O)cn(C3CC3)c12
0.05 µg/mL (≈ 0.128 µM) | 6.25 µg/mL (≈ 16 µM) | 0.025 µg/mL (≈ 0.0639 µM) | 0.2 µg/mL (≈ 0.511 µM) | 0.2 µg/mL (≈ 0.511 µM) | COc1c(N2CCOC(CN)C2)c(F)cc2c(=O)c(C(=O)O)cn(C3CC3)c12 (stereo not drawn)
0.05 µg/mL (≈ 0.128 µM) | 1.56 µg/mL (≈ 4.01 µM) | 0.012 µg/mL (≈ 0.0308 µM) | 0.05 µg/mL (≈ 0.128 µM) | 0.1 µg/mL (≈ 0.257 µM) | COc1c(N2CCC(C)(CN)C2)c(F)cc2c(=O)c(C(=O)O)cn(C3CC3)c12 (stereo not drawn)
0.05 µg/mL (≈ 0.119 µM) | 1.56 µg/mL (≈ 3.7 µM) | 0.025 µg/mL (≈ 0.0593 µM) | 0.2 µg/mL (≈ 0.475 µM) | 0.1 µg/mL (≈ 0.237 µM) | CNCC1(CF)CCN(c2c(F)cc3c(=O)c(C(=O)O)cn(C4CC4)c3c2OC)C1 (stereo not drawn)
0.05 µg/mL (≈ 0.123 µM) | 3.13 µg/mL (≈ 7.68 µM) | 0.012 µg/mL (≈ 0.0295 µM) | 0.05 µg/mL (≈ 0.123 µM) | 0.05 µg/mL (≈ 0.123 µM) | COc1c(N2CC[C@](CN)(CF)C2)c(F)cc2c(=O)c(C(=O)O)cn(C3CC3)c12
0.2 µg/mL (≈ 0.459 µM) | 6.25 µg/mL (≈ 14.4 µM) | 0.1 µg/mL (≈ 0.23 µM) | 0.2 µg/mL (≈ 0.459 µM) | 0.39 µg/mL (≈ 0.896 µM) | COc1c(N2CCC(CF)(CN(C)C)C2)c(F)cc2c(=O)c(C(=O)O)cn(C3CC3)c12 (stereo not drawn)

Further lines, the compound ahead of its results:

Structure (SMILES) | MIC (Enterococcus faecalis) | MIC (Staphylococcus aureus [1]) | MIC (Staphylococcus aureus [2]) | MIC (Streptococcus pneumoniae) | MIC (Escherichia coli)
NCC1CN(c2cc3c(cc2F)c(=O)c(C(=O)O)cn3C2CC2)CCO1 (stereo not drawn) |  |  | 0.2 µg/mL (≈ 0.553 µM) | 0.39 µg/mL (≈ 1.08 µM) | 0.39 µg/mL (≈ 1.08 µM)
NCC1CN(c2c(F)cc3c(=O)c(C(=O)O)cn(C4CC4)c3c2Cl)CCO1 (stereo not drawn) |  |  | 0.012 µg/mL (≈ 0.0303 µM) | 0.1 µg/mL (≈ 0.253 µM) | 0.1 µg/mL (≈ 0.253 µM)
NCC1CN(c2c(F)cc3c(=O)c(C(=O)O)cn(C4CC4)c3c2F)CCO1 (stereo not drawn) |  |  | 0.025 µg/mL (≈ 0.0659 µM) | 0.1 µg/mL (≈ 0.264 µM) | 0.1 µg/mL (≈ 0.264 µM)
O=C(O)c1cn(C2CC2)c2cc(N3CCNCC3)c(F)cc2c1=O [CIPROFLOXACIN] | 0.2 µg/mL (≈ 0.604 µM) | > 100 µg/mL | 0.2 µg/mL (≈ 0.604 µM) | 0.39 µg/mL (≈ 1.18 µM) | 
CC1COc2c(N3CCN(C)CC3)c(F)cc3c(=O)c(C(=O)O)cn1c23 (stereo not drawn) [OFLOXACIN] | 0.39 µg/mL (≈ 1.08 µM) | 50 µg/mL (≈ 138 µM) | 0.2 µg/mL (≈ 0.553 µM) | 0.78 µg/mL (≈ 2.16 µM) | 0.05 µg/mL (≈ 0.138 µM)
C[C@@H]1CN(c2c(F)c(N)c3c(=O)c(C(=O)O)cn(C4CC4)c3c2F)C[C@H](C)N1 [SPARFLOXACIN] | 0.1 µg/mL (≈ 0.255 µM) | 12.5 µg/mL (≈ 31.9 µM) | 0.05 µg/mL (≈ 0.127 µM) | 0.1 µg/mL (≈ 0.255 µM) | 0.025 µg/mL (≈ 0.0637 µM)
NC1CCN(c2nc3c(cc2F)c(=O)c(C(=O)O)cn3-c2ccc(F)cc2F)C1 (stereo not drawn) [TOSUFLOXACIN] | 0.05 µg/mL (≈ 0.124 µM) | > 25 µg/mL | 0.025 µg/mL (≈ 0.0618 µM) | 0.1 µg/mL (≈ 0.247 µM) | 0.025 µg/mL (≈ 0.0618 µM)
